# Values of other authors as cited in patent US6689382B2, “Soft shell gelatin capsules containing non-steroidal anti-inflammatories” (priority 2002, dated 2004).
# How the values were obtained:
# COX-2 and COX-1 = details: for ratio COX-2 IC50 divided by COX-1 IC50: in vitro, the smaller the ratio the more selective for COX-2; for selectivity for COX-1 and COX-2 (in words): conventional 1st generation NSAIDs
# [1] = clinical trials
Structure (SMILES),ratio COX-2 IC50 divided by COX-1 IC50 (COX-2 and COX-1),selectivity for COX-1 and COX-2 (in words) (COX-2 and COX-1),also measured
CN1C(C(=O)Nc2ccccn2)=C(O)c2ccccc2S1(=O)=O [piroxicam],about 30,,
CC(C(=O)O)c1cccc(C(=O)c2ccccc2)c1 (stereo not shown) [ketoprofen],,relatively COX-1 selective,
COc1ccc2cc([C@H](C)C(=O)O)ccc2c1 [naproxen],,essentially non-selective,
"Cc1ccc(-c2cc(C(F)(F)F)nn2-c2ccc(S(N)(=O)=O)cc2)cc1 [celecoxib, Celecoxib]",,,anti-inflammatory activity [1]: effective anti-inflammatory activity; gastrointestinal adverse effects ([1]; compared to placebo): virtually no gastrointestinal adverse effects
COc1ccc2c(c1)c(CC(=O)O)c(C)n2C(=O)c1ccc(Cl)cc1 [indomethacin],about 30,,
CC(C)Cc1ccc(C(C)C(=O)O)cc1 (stereo not shown) [ibuprofen],,essentially non-selective,
